Patent publication US20100331203A1, “AROMATASE EXPRESSION PREDICTS SURVIVAL IN WOMEN WITH NON-SMALL CELL LUNG CANCER” (THE REGENTS OF THE UNIVERSITY OF CALIFORNIA, priority 2007, published 2010)
“Also recorded” adds a separate entry of the source.

Key:
[1] = test system: NSCLC cells; details: cited from earlier work
[2] = test system: human NSCLC xenograph; details: in vivo; cited from earlier work
[3] = test system: A549 lung tumor cells; experiment: A549 non-small cell lung tumor xenografts in ovariectomized female athymic mice; format: in vivo; details: daily subcutaneous treatment, 5 animals per group, P<0.001
Source text: FIG. 1. Growth-promoting effects of estrogen and aromatase substrate on non-small cell lung tumor xenografts in vivo. A549 lung tumor cells which express endogenous aromatase were implanted as subcutaneous xenografts in ovariectomized female athymic mice. Mice were then divided into 3 groups (5 animals per group). ▪ Animals were given daily subcutaneous treatments of the aromatase substrate androstenedione as before (see, e.g. Weinberg et al., Cancer Res 2005; 65:11287-91). […] Animals were given daily subcutaneous treatments of estradiol in a biodegradable binder as described (see, e.g. Pietras et al., Oncogene 1995; 10:2435-46). ▴ Control animals were supplemented with subcutaneous injection of vehicle alone.
In this study we examined aromatase, a key enzyme in the estrogen synthesis pathway. We hypothesized that expression of aromatase in lung cancer cells could result in a focal increase in estrogen levels and serve to promote tumor development and/or progression. […] To further assess estrogen signaling in NSCLC in vivo, we implanted A549 lung tumor cells which express endogenous aromatase in ovariectomized female athymic mice.
The protocol used for implantation of human lung tumor xenografts in nude mice was described previously (see, e.g. Weinberg et al., Cancer Res 2005; 65:11287-91; Pietras et al., Oncogene 1995; 10:2435-46). […]

[4] = exemestane cohort compared to women maintained on tamoxifen; cited from earlier work

## C[C@]12CC[C@@H]3c4ccc(O)cc4C[C@@H](CCCCCCCCC[S+]([O-])CCCC(F)(F)C(F)(F)F)[C@H]3[C@@H]1CC[C@@H]2O (stereo partly shown) [Faslodex, fulvestrant]
[1]; ER antagonist
  Effect on 17β-estradiol-induced mitogenesis and gene transcription in NSCLC cells: inhibited
[2]
  Tumor formation in human NSCLC xenograph model: inhibited

## C[C@]12CCC(=O)C=C1CC[C@@H]1[C@@H]2CC[C@]2(C)C(=O)CC[C@@H]12 [androstenedione]
[3]
  Growth of A549 tumors compared to control animals: significantly increased; also recorded: significantly enhanced tumor growth

## C[C@]12CC[C@@H]3c4ccc(O)cc4CC[C@H]3[C@@H]1CC[C@@H]2O [estradiol, 17β-estradiol]
[3]
  Growth of A549 tumors compared to control animals: significantly increased
[1]; in vitro and in vivo models
  Gene transcription in NSCLC cells: stimulates
  Mitogenic effect on NSCLC cells: mitogenic

## C=C1C[C@@H]2[C@H](CC[C@]3(C)C(=O)CC[C@@H]23)[C@@]2(C)C=CC(=O)C=C12 [exemestane]
[4]
  Subsequent development of primary lung cancer: reduction
